In the assay the test system is CEM cells HIV-1 protection, formazan growth assay. The assay can be described thus: NCI AIDS Antiviral Assay. To be noted: for pIC50: measured here: growth of uninfected CEM cells. The method, boiled down:
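CEM (human) cells, HIV-1 infected vs uninfected, 5-point dosing, formazan growth read-out. Retest threshold 50% protection.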

We go through 69 compounds from PubChem BioAssay AID179 (DTP/NCI, 2004).

Each structure is given as a SMILES string. pEC50, pIC50: −log10 of the molar value. Where “and” joins values, the source holds several entries; their conditions need not be identical. Identical values can stand only once. Calls of active or inactive are those of the source.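 Rule for the calls: active = compounds giving half or more protection of infected cells from virus-caused growth loss, again on retest; inactive = the rest.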 Where only a bound is given, the exact number is not on record here.

Regarding `COC([C@@H](OC(=O)c1ccccc1)[C@H](OC(=O)c1ccccc1)C(O)COC(=O)c1ccccc1)n1cc(C)c(=O)[nH]c1=O` (stereo partly drawn), the pEC50 (commonly the EC50 on a negative log10 scale, so that one unit is a factor of ten) was < 3.70 and the pIC50 (in general, −log10 of the IC50, conventionally taken in molar units) is 4.88.

Regarding `C#CCNC(=O)ON1C(=O)CCC1=O`, the pEC50 is < 2.90 and the pIC50 was < 2.90.

Turning to `CCOCNC(=O)N(COCC)COCC`, the pEC50 was < 3.40 and the pIC50 is < 3.40.

As to `CC(C)N1C(=O)C(C#N)=C(c2ccccc2)SC1c1ccccc1` (stereo not drawn), the pEC50 is < 4.52 and the pIC50 is < 4.52.

As for `COC(=O)CC[C@@H](NC(=O)C(C)NC(=O)COC1C(O)C(COC(=O)CCCCCCCCCCNC(=O)c2ccc([N+](=O)[O-])c3[nH]c4cc(Br)ccc4c(=O)c23)OC(OCc2ccccc2)C1NC(C)=O)C(N)=O` (stereo partly drawn), the outcome was inactive.

Take `Nc1ncc2c(ncn2CCO)n1`: the pEC50 was < 3.55 and the pIC50 is < 3.55.

For `N#CC1CC12c1ccccc1C(=O)c1ccccc12` (stereo not drawn), the pEC50 was 3.87 and the pIC50 was 3.84.

For `C#[N+]CCOP(=O)(OCC1OC(n2cc(C)c(=O)[nH]c2=O)CC1N=[N+]=[N-])O[C@H]1CC[C@@]2(C)C(=CC[C@H]3[C@@H]4CC[C@H](C(C)CCCC(C)C)[C@@]4(C)CC[C@@H]32)C1` (stereo partly drawn), the pEC50 was 5.38 and 5.00; the pIC50 is < 3.70.

With `COc1cccc(NC(=S)/C(=C(/[O-])c2ccc([N+](=O)[O-])cc2)[n+]2ccccc2)c1`, the pEC50 was < 3.70 and the pIC50 was < 3.70.

On to `S=C(NCCc1ccccn1)N/N=C/c1ccccn1`, for which the pEC50 is < 5.70 and the pIC50 was 7.59.

As to `C=C(CCOC)CCC1CCCCC(=C)[C@H]1OC(C)=O` (stereo partly drawn), the pEC50 is < 3.70 and the pIC50 was 3.97.

As to `CCCCCCCCN1CCCN(/N=C/c2c3c(O)c4c(O)c(C)c5c(c4c2O)C(=O)C(C)(O/C=C/C(OC)C(C)C(OC(C)=O)C(C)C(O)C(C)C(O)C(C)/C=C/C=C(C)C(=O)N3)O5)CC1` (stereo not drawn), the pEC50 is < 3.70 and the pIC50 is 5.14.

As to `Cc1cc(Cl)ccc1NC(=O)CCCC(=O)C1CCC/C1=N\NC(=O)CC#N` (stereo not drawn), the pEC50 was < 4.19 and the pIC50 is < 4.19.

For the compound `COc1ccccc1C(=O)NO`, the pEC50 is < 3.70 and the pIC50 is < 3.70.

Take `O=c1cc(-c2ccccc2)nc(-n2[nH]c3c(c2=O)CCCC3)[nH]1`: the pEC50 is < 4.30 and the pIC50 is 5.89.

Regarding `COc1ccc(CC2NCCc3cc(OC)c(OC)cc32)cc1` (stereo not drawn), the pEC50 was < 3.10 and the negative logarithm of the IC50 (pIC50) is 3.86.

As to `C=CC(C)(O)CNc1ccccc1` (stereo not drawn), the pEC50 is < 3.69 and the pIC50 is < 3.69.

Turning to `CN(c1ccccc1Cl)S(=O)(=O)c1ccc([N+](=O)[O-])cc1`, the pEC50 was < 3.70 and the pIC50 is < 3.70.

Regarding `COc1ccc2c3c([nH]c2c1[N+](=O)[O-])C(C)N(Cc1ccc([N+](=O)[O-])cc1)CC3` (stereo not drawn), the result was inactive.

As to `CC1(C)CCOC(=O)C(Cl)CC1Cl` (stereo not drawn), the pEC50 is < 3.70 and the pIC50 is < 3.70.

For the compound `O=CC(O)C(O)C(O)C(O)CON1C[C@@H](O)C(O)[C@@H](O)C1` (stereo partly drawn), the pEC50 is < 3.70 and the pIC50 was < 3.70.

For `CC1(O)Cc2c(O)c3c(c(O)c2CC1O)C(=O)C=CC3=O` (stereo not drawn), the pEC50 is < 4.89 and the pIC50 is 5.88.

Take `Cc1noc(NS(=O)(=O)c2ccc(Nc3nc(CC(=O)Nc4ccccc4)cs3)cc2)c1C`: the pEC50 is < 3.70 and the pIC50 was 4.55.

For the compound `CC(=O)OC1C(CN2CCOC2=O)OC(n2cc(C)c(=O)[nH]c2=O)C1OC(C)=O` (stereo not drawn), the pEC50 was < 3.70 and the pIC50 is < 3.70.

Consider `O=C1C(c2ccc([N+](=O)[O-])cc2)=[N+]([O-])c2ccccc21`, for which the outcome was inactive.

For the compound `C=CCOC1CC(n2cnc3c(N)ncnc32)OC1CO` (stereo not drawn), the pEC50 was < 3.70 and the negative-log IC50 (pIC50) was < 3.70.

Regarding `Cc1cccc2c1C(=O)[C@](C)([C@]1(C)Nc3cccc(C)c3C1=O)N2`, the pEC50 was < 3.70 and the pIC50 was 4.76.

Regarding `Cc1cc(S(=O)(=O)Nc2nc(N)nc(N3CCCCC3)n2)c(S)cc1Cl`, the pEC50 was < 3.70 and the pIC50 was < 3.70.

For `CCOc1nc(C(=O)O)cc2ccsc12`, the pEC50 was < 3.23 and the pIC50 was 3.30.

For the compound `NC(=O)COC(=O)c1c(Cl)nc2sccn12`, the pEC50 was < 3.46 and the pIC50 is < 3.46.

With `CC(C)CC(C(N)=O)C(=O)NC(Cc1ccccc1)NC(=O)CNC(=O)OC(C)(C)C` (stereo not drawn), the pEC50 was < 4.60 and the pIC50 was < 4.60.

`CC(=O)Oc1ccc2c(c1)Oc1cc(OC(C)=O)ccc1C21OC(=O)c2ccccc21`: the pEC50 is < 3.70.

Turning to `N#C/C(=C\c1ccc(O)cc1)c1ccc([N+](=O)[O-])cc1`, the pEC50 is < 3.70 and the pIC50 is 3.76.

As for `CCOC(=O)CN1CCC2CC1c1c([nH]c3ccccc13)C21OCCO1` (stereo not drawn), the pEC50 is < 3.70 and the pIC50 is < 3.70.

`Cc1ccc2c(c1)CC1(Cc3cccc(C)c3C1=O)C2=O` (stereo not drawn): the pEC50 was < 3.70 and the pIC50 is < 3.70.

As to `C=CCC1(CC(=O)O)CC=CCC12OCCO2` (stereo not drawn), the pEC50 is < 3.70 and the pIC50 was < 3.70.

For the compound `CCN=C(N)SCCS(=O)(=O)O`, the pEC50 is < 3.70 and the pIC50 is < 3.70.

Turning to `O=C1CCN2C(=O)CCN12`, the pEC50 is < 2.75 and the pIC50 is < 2.75.

As to `C=COCCC(C(=O)OCC)C(=O)OCC`, the pEC50 is < 3.70 and the pIC50 is < 3.70.

For `CCCCCCCCOC(=O)CC(C(=O)OCCCCCCCC)S(=O)(=O)O` (stereo not drawn), the pEC50 was < 3.70 and the pIC50 was 3.93.

Turning to `COc1ccc(-c2coc3c4c(c5c(c3c2=O)OC(C)(C)CC5)OC(C)(C)C=C4)cc1OC`, the pEC50 is < 4.40 and the pIC50 was 4.91.

With `CCC/C(=N/OC(=O)N(C)C)c1ccccc1`, the pEC50 is < 3.70 and the pIC50 is 3.87.

Turning to `Cc1ccc(C(=O)Oc2ccccc2)cc1N=NN(C)C`, the pEC50 is < 4.59 and the pIC50 was < 4.59.

Take `O=S(=O)(O)c1cc(N=Nc2cc(S(=O)(=O)O)c3ccccc3c2O)ccc1/C=C/c1ccc(N=Nc2cc(S(=O)(=O)O)c3ccccc3c2O)cc1S(=O)(=O)O`: the pEC50 is 4.47 and 4.91; the pIC50 is 3.72 and < 3.70.

For the compound `COCc1cn(C2CCC(CO)O2)c(=O)[nH]c1=O` (stereo not drawn), the pEC50 is < 3.31 and the pIC50 was 3.57.

Take `CC(SC(=O)Nc1ccc(N=Nc2ccccc2)cc1)C(=O)O` (stereo not drawn): the outcome was inactive.

On to `O=C1CCC(N2C(=O)C3C4C=CC(CC4)C3C2=O)C(=O)N1` (stereo not drawn), for which the pEC50 is < 3.06 and the pIC50 is < 3.06.

Turning to `C[C@H]1NC(=O)C2CCCCN2C(=O)CN(C)C(=O)CNC(=O)C2CCCCN2C(=O)[C@@H](NC(=O)c2nc3ccccc3cc2O)[C@@H](C)NC(=O)C2CCCCN2C(=O)CN(C)C(=O)CNC(=O)[C@@H]2CCCCN2C(=O)C1NC(=O)c1nc2ccccc2cc1O` (stereo partly drawn), the pEC50 is < 4.98 and the pIC50 is 7.37.

For `CC(=O)NNC(=S)/N=C\C(C(=O)c1ccccc1)=C(/O)c1ccccc1`, the pEC50 is < 3.70 and the pIC50 was < 3.70.

Turning to `CC1=CC(C)(C)[C@H]2O[C@@]3(O)C[C@]4(C)[C@H]5C[C@@](C(C)C)(O[C@H]4c4ccoc4)O[C@H]4[C@]5(C3)O[C@@]1(O)[C@]24O`, the pEC50 is < 4.00 and the pIC50 was < 4.00.

As to `CCOC(=O)C(NC(=O)CC(C)C)(N1CCN(c2cc3c(cc2F)c(=O)c(C(=O)O)cn3C2CC2)CC1)C(F)(F)F` (stereo not drawn), the pEC50 is < 3.70 and the pIC50 is 5.72.

With `CC(C)CC(NC=O)C(=O)NC(Cc1ccccc1)NC(=O)CNC(=O)C(C)NC(=O)OC(C)(C)C` (stereo not drawn), the pEC50 was < 3.70 and the pIC50 is < 3.70.

Consider `N#CCC(=O)N/N=C\c1ccc2c(c1)OCO2`, for which the pEC50 was < 3.70 and the pIC50 is < 3.70.

In the case of `O=C(O)C#CC(=O)O`, the pEC50 is < 2.80 and the pIC50 is < 2.80.

Take `OCC1C=CC(n2cnc3c(Cl)ncnc32)CC1` (stereo not drawn): the pEC50 is < 3.70 and the pIC50 is 4.46.

Take `CCCc1cc(=O)oc2c3c(cc(OC(C)C)c12)O[C@H](C)[C@H](C)C3=O`: the pEC50 is < 3.70 and the pIC50 is 4.52.

Take `N#C/C(=C\c1ccccc1)C(NO)Nc1ccccc1` (stereo not drawn): the pEC50 is < 3.87 and the pIC50 is 4.19.

As to `COC(=O)Nc1nc2ccccc2c(=O)[nH]1`, the pEC50 is < 3.70 and the pIC50 is < 3.70.

As to `CCO/N=C(/CC)c1ccc(Br)s1`, the pEC50 was < 3.70 and the pIC50 was 3.99.

Regarding `COc1ccc(OC)c(/C=C/c2ccc3ccccc3n2)c1`, the pEC50 is < 4.61 and the pIC50 is < 4.61.

For `CC(=O)NC1C(OCc2ccccc2)OC(CO)C(O)C1OCC(=O)N1CCCC1C(=O)N[C@@H](CCC(=O)NCCNCCNc1c2ccccc2nc2cccc([N+](=O)[O-])c12)C(N)=O` (stereo partly drawn), the pEC50 is < 4.00 and the pIC50 is 5.82.

With `Oc1cccc(/C=C/c2cnnc3ccccc23)c1`, the pEC50 was < 3.70 and the pIC50 was 4.43.

Take `c1cnc2c(c1)-n1cccc1C1(CCSCC1)NN2`: the pEC50 was < 4.22 and the pIC50 is < 4.22.

In the case of `COc1c(O)ccc2oc3cc(O)cc(O)c3c(=O)c12`, the pEC50 is < 3.70 and the pIC50 is 3.84.

In the case of `CCOC(=O)C1(Cc2ccccc2)Cc2cc3c(cc2C1)CCC3`, the pEC50 is < 3.70 and the pIC50 was 4.47.

As for `CCN(CC)C(=O)c1cccc2c1OCO2`, the pEC50 was < 2.95 and the pIC50 was < 2.95.

For `BrC12C3C4C5C(C(C43)C13OCCO3)C52` (stereo not drawn), the pEC50 was < 3.15 and the pIC50 is < 3.15.

For the compound `O=C(CC(C(=O)c1cccs1)c1ccc2c(c1)OCO2)c1ccccc1` (stereo not drawn), the pEC50 was < 3.70 and the pIC50 was < 3.70.

Regarding `O=C(Nc1ccc(NC(=O)Nc2cc(C(=O)Nc3ccc(C4=NCCN4)cc3)ccc2C(=O)Nc2ccc(C3=NCCN3)cc2)cc1)Nc1cc(C(=O)Nc2ccc(C3=NCCN3)cc2)ccc1C(=O)Nc1ccc(C2=NCCN2)cc1`, the pEC50 was 4.50 and the pIC50 is < 4.00.
